From paper PMC9981719, “A novel designed membrane-active peptide for the control of foodborne Salmonella enterica serovar Typhimurium” (Scientific Reports, 2023)
Values after ≈ are worked out from the molar mass of the structure shown. Like-named read-outs stand apart in the source and are kept apart here. Where no end group is shown, it is not given here.

Key:
[1] = system: Salmonella Typhimurium ATCC 13311; assay type: cell-based, Salmonella enterica serovar Typhimurium
Text: (§1) All tests were done in triplicate.

[2] = system: Acinetobactero baumanii MT strain; assay type: cell-based; details: for MIC: 24 h
Text: as §1

[3] = system: Bacillus cereus ATCC 11778; assay type: cell-based
Text: as §1

[4] = system: Listeria monocytogenes 10403s; assay type: cell-based; details: for MIC: 24 h
Text: as §1

[5] = system: Pseudomonas aeruginosa ATCC 27853; assay type: cell-based
Text: as §1

[6] = system: Staphylococcus aureus ATCC 25923; assay type: cell-based; details: for MBC: ATCC 25923, 18 h; for MIC: ATCC 25923, 24 h
Text: as §1

[7] = system: Staphylococcus epidermidis ATCC 12228; assay type: cell-based; details: for MBC: ATCC 12228, 18 h
Text: as §1

[8] = system: panel of human pathogenic bacterial strains; details: summary over all tested strains of Table 1
Protocol: Four Gram-negative bacteria including Salmonella enterica serovar Typhimurium (S. Typhimurium) ATCC 13311 and 16 drug-resistant S. enterica isolates (S. Typhimurium and monophasic variant 4,5,12:i:-), and four Gram-positive bacteria (Staphylococcus aureus ATCC 25923, Staphylococcus epidermidis ATCC 12228, Bacillus cereus ATCC 11778, and Listeria monocytogenes 10403s) were used as test microorganisms. […] All bacterial strains were cultured in a proper medium at 37 °C for 18 h (Table 1).
The minimum inhibitory concentration (MIC) of each peptide was evaluated by broth microdilution assay according to a modification described by the National Committee for Clinical Laboratory Standards (NCCLS)[22]. Mid-logarithmic phase bacterial cells were adjusted to an OD620 of 0.05 in Mueller–Hinton broth (MHB), a universal medium for antibacterial susceptibility testing[23]. Then, 50 µl of bacterial solution was incubated with 50 µl of two-fold serially diluted peptide (0.98–250 µg/ml in PBS) at 37 °C for 24 h with continuous shaking. […] The minimal bactericidal concentration (MBC) of each peptide was determined using a colony count assay. Fifty microliter aliquots of the mixture from each non-turbid well (no growth) from the MIC experiment was spread on Tryptic soy agar (TSA) and cultured overnight at 37 °C. […]

[9] = system: Shigella sonnei ATCC11060; assay type: cell-based; details: triplicate; for MIC: broth microdilution in MHB, 37 °C, 24 h; for MBC: colony count on TSA from non-turbid MIC wells
Text: as §1

[10] = system: all Gram-negative strains; experiment: Geometric mean of MICs and therapeutic index, Gram-negative strains; assay type: cell-based; details: 4 Gram-negative strains
Text: as §1

[11] = system: all Gram-positive strains; experiment: Geometric mean of MICs and therapeutic index, Gram-positive strains; assay type: cell-based; details: 4 Gram-positive strains
Text: as §1

[12] = system: L929 mouse fibroblast cells; experiment: In vitro cytotoxicity, MTT assay; assay type: cell-based; details: 0.98–250 µg/ml, 24 h
Protocol: The cytotoxicity of A11 was evaluated by the 3-(4,5 dimethylthiazol-2-yl)-2,5-diphenyltetrazolium bromide (MTT) assay. L929 mouse fibroblast cells were cultured in Dulbecco's Modified Eagle Medium (DMEM) supplemented with 1% (v/v) of 100 IU/ml penicillin/streptomycin and 10% (v/v) fetal bovine serum (FBS). The cells were maintained in an air atmosphere containing the 5% CO2 under high humidity at 37 °C. L929 cell lines were seeded into a sterile 96-well plate (1 × 10^4 cells/well) then incubated overnight and treated with different concentrations of A11 (0.98–250 µg/ml) for 24 h. Media were removed, and cultured cells were incubated with 100 µl of MTT solution (4 mg/ml) for 4 h at 37 °C. After removal of MTT solution, the formed formazan was dissolved in 100 µl DMSO. Absorbance was measured by microplate reader at 570 nm; untreated cells served as negative control and melittin-treated cells as a positive control. Cell viability was determined following this equation: Cell viability%=ODTreated/ODControl×100

[13] = broth microdilution in MHB, 37 °C, triplicate
[14] = colony count on TSA from non-turbid MIC wells, triplicate
[15] = broth microdilution in MHB, 37 °C, 24 h, triplicate

## GVKKVAHKVVKIGRKVAWGAVSGV-NH2 [A4]
[1]; ATCC 13311, 18 h
  MBC: 31.25 (31.25) µg/ml
[1]; ATCC 13311, 24 h
  MIC: 31.25 (31.25) µg/ml
[2]; 18 h
  MBC: 31.25 µg/mL
[2]
  MIC: 15.63 µg/mL
[3]; ATCC 11778, 18 h
  MBC: > 250 (> 250) µg/ml
[3]; ATCC 11778, 24 h
  MIC: > 250 (> 250) µg/ml
[4]; 10403s, 18 h
  MBC: 250 (> 250) µg/ml
[4]; 10403s
  MIC: 250 (> 250) µg/ml
[5]; ATCC 27853, 18 h
  MBC: 250 (250) µg/ml
[5]; ATCC 27853, 24 h
  MIC: 250 (250) µg/ml
[6]
  MBC: > 250 (> 250) µg/ml
  MIC: > 250 (> 250) µg/ml
[7]
  MBC: 250 (250) µg/ml
[7]; ATCC 12228, 24 h
  MIC: 250 (250) µg/ml

## GNPKVAHCASQIGRSTAWGAVSGA-NH2 [A0, acidocin J1132β, reference compound]
[1]; ATCC 13311, 18 h
  MBC: > 250 (> 250) µg/ml
[1]; ATCC 13311, 24 h
  MIC: > 250 (> 250) µg/ml
[2]; 18 h
  MBC: > 250 (> 250) µg/ml
[2]
  MIC: > 250 (> 250) µg/ml
[3]; ATCC 11778, 18 h
  MBC: > 250 (> 250) µg/ml
[3]; ATCC 11778, 24 h
  MIC: > 250 (> 250) µg/ml
[4]; 10403s, 18 h
  MBC: > 250 (> 250) µg/ml
[4]; 10403s
  MIC: > 250 (> 250) µg/ml
[5]; ATCC 27853, 18 h
  MBC: > 250 (> 250) µg/ml
[5]; ATCC 27853, 24 h
  MIC: > 250 (> 250) µg/ml
[6]
  MBC: > 250 (> 250) µg/ml
  MIC: > 250 (> 250) µg/ml
[7]
  MBC: > 250 (> 250) µg/ml
[7]; ATCC 12228, 24 h
  MIC: > 250 (> 250) µg/ml
[8]
  MIC over the tested bacteria: > 250 mg/L

## CC[C@H](C)[C@H](NC(=O)CN)C(=O)NCC(=O)N[C@@H](C)C(=O)N[C@H](C(=O)N[C@@H](CC(C)C)C(=O)N[C@@H](CCCCN)C(=O)N[C@H](C(=O)N[C@@H](CC(C)C)C(=O)N[C@H](C(=O)N[C@H](C(=O)NCC(=O)N[C@@H](CC(C)C)C(=O)N1CCC[C@H]1C(=O)N[C@@H](C)C(=O)N[C@@H](CC(C)C)C(=O)N[C@H](C(=O)N[C@@H](CO)C(=O)N[C@@H](Cc1c[nH]c2ccccc12)C(=O)N[C@H](C(=O)N[C@@H](CCCCN)C(=O)N[C@@H](CCCNC(=N)N)C(=O)N[C@@H](CCCCN)C(=O)N[C@@H](CCCNC(=N)N)C(=O)N[C@@H](CCC(N)=O)C(=O)N[C@@H](CCC(N)=O)C(N)=O)[C@@H](C)CC)[C@@H](C)CC)[C@@H](C)O)[C@@H](C)O)C(C)C)C(C)C [Melittin, reference compound]
[1]; broth microdilution in MHB, 37 °C, 24 h, visible inspection, triplicate
  MIC: 3.91 (3.91) µg/ml
[1]; colony count on TSA from non-turbid MIC wells, overnight 37 °C, triplicate
  MBC: 3.91 (3.91) µg/ml
[2]; [13]
  MIC: 7.81 (7.81) µg/ml
[2]; [14]
  MBC: 7.81 (7.81) µg/ml
[3]; [15]
  MIC: 3.91 µg/mL (≈ 1.37 µM)
[3]; [14]
  MBC: 7.81 µg/mL (≈ 2.74 µM)
[4]; [13]
  MIC: 3.91 (3.91) µg/ml
[4]; [14]
  MBC: 3.91 (3.91) µg/ml
[5]; [15]
  MIC: 15.63 (15.63) µg/ml
[5]; [14]
  MBC: 15.63 (15.63) µg/ml
[9]
  MIC: 3.91 mg/L (≈ 1.37 µM)
  MBC: 7.81 mg/L (≈ 2.74 µM)
[7]; [15]
  MIC: 3.91 (3.91) µg/ml
[10]
  GM (Gr.- strains), geometric mean of MIC values from all Gram-negative strains: 6.8 mg/L
[11]
  GM (Gr. + strains), geometric mean of MIC values from all Gram-positive strains: 3.91 mg/L
[12]
  cytotoxicity toward L929 cells (cell viability, MTT): strongly cytotoxic

## GVKKVAHKVVKIGRKVAW-NH2 [A6]
[1]; ATCC 13311, 18 h
  MBC: 62.5 (62.5) µg/ml
[1]; ATCC 13311, 24 h
  MIC: 62.5 (62.5) µg/ml
[2]; 18 h
  MBC: 31.25 (31.25) µg/ml
[2]
  MIC: 31.25 (31.25) µg/ml
[3]; ATCC 11778, 18 h
  MBC: > 250 (> 250) µg/ml
[3]; ATCC 11778, 24 h
  MIC: > 250 (> 250) µg/ml
[4]; 10403s, 18 h
  MBC: 250 (> 250) µg/ml
[4]; 10403s
  MIC: 250 (> 250) µg/ml
[5]; ATCC 27853, 18 h
  MBC: 250 µg/mL
[5]; ATCC 27853, 24 h
  MIC: 125 µg/mL
[9]
  MIC: 62.5 mg/L
  MBC: 125 mg/L
[6]
  MBC: > 250 (> 250) µg/ml
  MIC: > 250 (> 250) µg/ml
[7]
  MBC: > 250 (> 250) µg/ml
[7]; ATCC 12228, 24 h
  MIC: > 250 (> 250) µg/ml

## GVKKVARKVVKIGRKVAR-NH2 [A9]
[1]; ATCC 13311, 18 h
  MBC: 62.5 (62.5) µg/ml
[1]; ATCC 13311, 24 h
  MIC: 62.5 (62.5) µg/ml
[2]; 18 h
  MBC: 125 µg/mL
[3]; ATCC 11778, 18 h
  MBC: > 250 (> 250) µg/ml
[3]; ATCC 11778, 24 h
  MIC: > 250 (> 250) µg/ml
[4]; 10403s, 18 h
  MBC: 250 (> 250) µg/ml
[4]; 10403s
  MIC: 250 (> 250) µg/ml
[5]; ATCC 27853, 18 h
  MBC: 250 (250) µg/ml
[5]; ATCC 27853, 24 h
  MIC: 250 (250) µg/ml
[6]
  MBC: > 250 (> 250) µg/ml
  MIC: > 250 (> 250) µg/ml
[7]
  MBC: > 250 µg/mL
[7]; ATCC 12228, 24 h
  MIC: 62.5 µg/mL
